Measurements taken from ChEMBL document CHEMBL4382265, “(Pyrrolo-pyridin-5-yl)benzamides: BBB permeable monoamine oxidase B inhibitors with neuroprotective effect on cortical neurons” (Eur J Med Chem, 2019).
Values after ≈ are worked out from the molar mass of the structure shown.

molecular target: T1, Amine oxidase [flavin-containing] B (Homo sapiens, UniProt P27338); experiment: biochemical; format: cell-based, BTI-TN-5B1-4; settings: not given
T1 sequence (P27338 whole entry): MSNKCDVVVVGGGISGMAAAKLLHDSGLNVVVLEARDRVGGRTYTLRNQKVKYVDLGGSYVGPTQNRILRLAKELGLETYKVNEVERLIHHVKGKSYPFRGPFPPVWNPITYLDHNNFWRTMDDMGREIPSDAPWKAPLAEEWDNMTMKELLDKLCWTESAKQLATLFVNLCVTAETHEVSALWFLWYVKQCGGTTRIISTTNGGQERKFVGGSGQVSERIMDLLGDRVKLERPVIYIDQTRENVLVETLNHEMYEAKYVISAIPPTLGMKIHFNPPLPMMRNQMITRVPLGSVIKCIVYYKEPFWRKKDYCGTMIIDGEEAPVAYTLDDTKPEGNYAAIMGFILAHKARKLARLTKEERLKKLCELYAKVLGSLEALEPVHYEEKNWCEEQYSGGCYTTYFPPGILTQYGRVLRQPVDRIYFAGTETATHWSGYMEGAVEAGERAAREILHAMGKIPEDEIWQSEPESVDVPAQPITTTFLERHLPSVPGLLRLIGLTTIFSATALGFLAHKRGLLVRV

Compound | IC50 [nM]
O=C(Nc1cc2cc[nH]c2cn1)c1ccc(Cl)c(Cl)c1 | 28.9
CC(=O)N[C@H]1CC(=O)N(c2ccc(OCc3cccc(F)c3)cc2)C1 [SEMBRAGILINE] | 5.9
O=C(Nc1cc2cc[nH]c2cn1)c1ccc(Cl)c(F)c1 | 121

species: Homo sapiens; experiment: Selectivity index, ratio of IC50 for human recombinant MAO-A expressed in baculovirus infected BTI-TN-5B1-4 insect cells to IC50 for human recombinant MAO-B expressed in baculovirus infected BTI-TN-5B1-4 insect cells; settings: not given

Compound | Ratio IC50
O=C(Nc1cc2cc[nH]c2cn1)c1ccc(Cl)c(Cl)c1 | > 346
O=C(Nc1ccc2[nH]ccc2n1)c1ccc(F)c(Cl)c1 | > 3060
O=C(Nc1cc2cc[nH]c2cn1)c1ccc(F)c(F)c1 | > 36
CC(=O)N[C@H]1CC(=O)N(c2ccc(OCc3cccc(F)c3)cc2)C1 [SEMBRAGILINE] | 653
O=C(Nc1cc2cc[nH]c2cn1)c1ccc(F)c(Cl)c1 | > 138
O=C(Nc1cc2cc[nH]c2cn1)c1ccc(Cl)c(F)c1 | > 82
O=C(Nc1ccc2[nH]ccc2n1)c1ccc(Cl)c(F)c1 | > 917

molecular target: T1, Amine oxidase [flavin-containing] B; experiment: Inhibition of human recombinant MAO-B expressed in baculovirus infected BTI-TN-5B1-4 insect cells using p-tyramine as substrate preincubated for 15 mins and measured after 45 mins by Cheng-Prusoff equation analysis; settings: not given

Compound | Ki [nM]
O=C(Nc1cc2cc[nH]c2cn1)c1ccc(Cl)c(Cl)c1 | 12.8
O=C(Nc1ccc2[nH]ccc2n1)c1ccc(F)c(Cl)c1 | 1.45
O=C(Nc1cc2cc[nH]c2cn1)c1ccc(F)c(F)c1 | 122
O=C(Nc1cc2cc[nH]c2cn1)c1ccc(F)c(Cl)c1 | 31.8
O=C(Nc1cc2cc[nH]c2cn1)c1ccc(Cl)c(F)c1 | 53.5
O=C(Nc1ccc2[nH]ccc2n1)c1ccc(Cl)c(F)c1 | 4.82

system: not listed separately; experiment: Selectivity ratio of IC50 for Sprague-Dawley rat liver MAO-B to human recombinant MAO-B expressed in baculovirus infected BTI-TN-5B1-4 insect cells; settings: not given

Compound | Ratio IC50
O=C(Nc1cc2cc[nH]c2cn1)c1ccc(Cl)c(Cl)c1 | 1.1
O=C(Nc1ccc2[nH]ccc2n1)c1ccc(F)c(Cl)c1 | 1.1
O=C(Nc1cc2cc[nH]c2cn1)c1ccc(F)c(F)c1 | 1.1
O=C(Nc1cc2cc[nH]c2cn1)c1ccc(F)c(Cl)c1 | 1.1
O=C(Nc1cc2cc[nH]c2cn1)c1ccc(Cl)c(F)c1 | 1.1
O=C(Nc1ccc2[nH]ccc2n1)c1ccc(Cl)c(F)c1 | 1.1

molecular target: T1, Amine oxidase [flavin-containing] B; experiment: Reversible inhibition of human recombinant MAO-B expressed in baculovirus infected BTI-TN-5B1-4 insect cells at IC80 using p-tyramine as substrate incubated for 20 mins followed by increase in substrate concentration up to 1 mM and measured after 300 mins by fluorescence assay; settings: not given

Compound | inhibition (INH)
O=C(Nc1ccc2[nH]ccc2n1)c1ccc(F)c(Cl)c1 | Active

system: not listed separately; experiment: Kinetic aqueous solubility of compound at 500 uM at pH 5.5 after 90 mins by UV-vis spectrophotometric analysis; format: physicochemical; settings: buffer, pH 5.5, 1.5 h, 500 µM

Compound | log(Kinetic_solubility)
O=C(Nc1cc2cc[nH]c2cn1)c1ccc(Cl)c(Cl)c1 | -4.16
O=C(Nc1ccc2[nH]ccc2n1)c1ccc(F)c(Cl)c1 | -3.96
O=C(Nc1ccc2[nH]ccc2n1)c1ccc(Cl)c(F)c1 | -4.09

same assay, conditions: buffer, pH 5.5; read-out: Kinetic_solubility

Compound | solubility kinetic at 1.5 h, 500 µM [µM]
O=C(Nc1cc2cc[nH]c2cn1)c1ccc(Cl)c(Cl)c1 | 68.8 (≈ 21.1 µg/mL)
O=C(Nc1ccc2[nH]ccc2n1)c1ccc(F)c(Cl)c1 | 111 (≈ 32.1 µg/mL)
O=C(Nc1ccc2[nH]ccc2n1)c1ccc(Cl)c(F)c1 | 82.1 (≈ 23.8 µg/mL)

system: not listed separately; experiment: Kinetic aqueous solubility of compound at 500 uM at pH 2 after 90 mins by UV-vis spectrophotometric analysis; format: physicochemical; settings: buffer, pH 2, 1.5 h, 500 µM

Compound | log(Kinetic_solubility)
O=C(Nc1cc2cc[nH]c2cn1)c1ccc(Cl)c(Cl)c1 | -3.37
O=C(Nc1ccc2[nH]ccc2n1)c1ccc(F)c(Cl)c1 | -3.33
O=C(Nc1ccc2[nH]ccc2n1)c1ccc(Cl)c(F)c1 | -3.41

same assay, conditions: buffer, pH 2; read-out: Kinetic_solubility

Compound | solubility kinetic at 1.5 h, 500 µM [µM]
O=C(Nc1cc2cc[nH]c2cn1)c1ccc(Cl)c(Cl)c1 | 426 (≈ 130 µg/mL)
O=C(Nc1ccc2[nH]ccc2n1)c1ccc(F)c(Cl)c1 | 501 (≈ 145 µg/mL)
O=C(Nc1ccc2[nH]ccc2n1)c1ccc(Cl)c(F)c1 | 391 (≈ 113 µg/mL)

molecular target: T2, Amine oxidase [flavin-containing] A (Rattus norvegicus, UniProt P21396); experiment: not given; settings: not given
T2 sequence (P21396 whole entry): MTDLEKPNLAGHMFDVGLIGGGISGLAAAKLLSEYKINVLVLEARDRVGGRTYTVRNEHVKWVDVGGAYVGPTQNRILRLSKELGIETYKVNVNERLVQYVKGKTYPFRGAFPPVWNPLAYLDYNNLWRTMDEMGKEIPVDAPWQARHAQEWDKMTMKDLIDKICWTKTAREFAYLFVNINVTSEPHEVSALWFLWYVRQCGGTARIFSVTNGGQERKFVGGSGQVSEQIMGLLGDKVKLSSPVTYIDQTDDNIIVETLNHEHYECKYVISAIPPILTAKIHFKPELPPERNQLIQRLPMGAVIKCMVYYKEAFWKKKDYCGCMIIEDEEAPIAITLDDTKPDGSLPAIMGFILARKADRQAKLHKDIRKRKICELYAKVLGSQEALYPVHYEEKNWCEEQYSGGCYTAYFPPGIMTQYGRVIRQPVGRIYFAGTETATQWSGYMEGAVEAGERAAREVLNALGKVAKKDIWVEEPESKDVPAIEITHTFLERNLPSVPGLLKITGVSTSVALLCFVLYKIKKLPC

Compound | IC50 [µM]
CC(=O)N[C@H]1CC(=O)N(c2ccc(OCc3cccc(F)c3)cc2)C1 [SEMBRAGILINE] | 7.7
O=C(Nc1cc2cc[nH]c2cn1)c1ccc(F)c(Cl)c1 | > 10
O=C(Nc1cc2cc[nH]c2cn1)c1ccc(Cl)c(F)c1 | > 10

molecular target: T3, Amine oxidase [flavin-containing] B (Rattus norvegicus, UniProt P19643); experiment: not given; settings: not given
T3 sequence (P19643 whole entry): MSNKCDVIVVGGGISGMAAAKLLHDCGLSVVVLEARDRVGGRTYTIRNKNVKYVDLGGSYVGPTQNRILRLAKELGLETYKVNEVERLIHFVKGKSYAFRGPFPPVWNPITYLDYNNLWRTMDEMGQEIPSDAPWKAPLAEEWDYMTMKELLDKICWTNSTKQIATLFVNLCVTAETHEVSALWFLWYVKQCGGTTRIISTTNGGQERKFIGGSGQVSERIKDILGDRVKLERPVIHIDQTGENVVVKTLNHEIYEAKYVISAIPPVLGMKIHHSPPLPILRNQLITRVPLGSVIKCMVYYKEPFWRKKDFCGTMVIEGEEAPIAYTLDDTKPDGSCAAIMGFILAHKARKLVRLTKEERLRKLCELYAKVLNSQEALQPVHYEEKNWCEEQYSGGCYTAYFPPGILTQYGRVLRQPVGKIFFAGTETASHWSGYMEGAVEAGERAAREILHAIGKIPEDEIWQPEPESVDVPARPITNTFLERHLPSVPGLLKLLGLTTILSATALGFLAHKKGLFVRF

Compound | IC50 [nM]
O=C(Nc1cc2cc[nH]c2cn1)c1ccc(F)c(F)c1 | 1300
CC(=O)N[C@H]1CC(=O)N(c2ccc(OCc3cccc(F)c3)cc2)C1 [SEMBRAGILINE] | 14.7
O=C(Nc1cc2cc[nH]c2cn1)c1ccc(Cl)c(F)c1 | 574

system: not given; experiment: not given; settings: pampa, pH 7.4, 4 h, 10000 µM

Compound | log(permeability)
O=C(Nc1cc2cc[nH]c2cn1)c1ccc(Cl)c(Cl)c1 | -3.96
O=C(Nc1ccc2[nH]ccc2n1)c1ccc(F)c(Cl)c1 | -3.96
O=C(Nc1ccc2[nH]ccc2n1)c1ccc(Cl)c(F)c1 | -3.9

system: not given; experiment: not given; settings: buffer, pH 7.4, 1.5 h, 500 µM

Compound | log(Kinetic_solubility)
O=C(Nc1cc2cc[nH]c2cn1)c1ccc(Cl)c(Cl)c1 | -4.19
O=C(Nc1ccc2[nH]ccc2n1)c1ccc(F)c(Cl)c1 | -3.92
O=C(Nc1ccc2[nH]ccc2n1)c1ccc(Cl)c(F)c1 | -4.03

system: not listed separately; experiment: in vitro; set-up: dose or concentration left out as unconfirmed; settings: PAMPA, pH 7.4
Description: Effective permeability of the compound in prisma HT buffer at 10 mM at pH 7.4 after 4 hrs by PAMPA

Compound | Papp at 4 h [×10⁻⁶ cm/s]
O=C(Nc1cc2cc[nH]c2cn1)c1ccc(Cl)c(Cl)c1 | 111
O=C(Nc1ccc2[nH]ccc2n1)c1ccc(F)c(Cl)c1 | 110
O=C(Nc1ccc2[nH]ccc2n1)c1ccc(Cl)c(F)c1 | 127

system: not listed separately; experiment: physchem; settings: n-octanol/water, pH 7.4

Compound | logD at 1.5 h
O=C(Nc1cc2cc[nH]c2cn1)c1ccc(Cl)c(Cl)c1 | 3.04
O=C(Nc1ccc2[nH]ccc2n1)c1ccc(F)c(Cl)c1 | 2.32
O=C(Nc1ccc2[nH]ccc2n1)c1ccc(Cl)c(F)c1 | 2.69

system: not listed separately; experiment: physchem; settings: buffer, pH 7.4

Compound | solubility kinetic at 1.5 h, 500 µM [µM]
O=C(Nc1cc2cc[nH]c2cn1)c1ccc(Cl)c(Cl)c1 | 65.1 (≈ 19.9 µg/mL)
O=C(Nc1ccc2[nH]ccc2n1)c1ccc(F)c(Cl)c1 | 119 (≈ 34.5 µg/mL)
O=C(Nc1ccc2[nH]ccc2n1)c1ccc(Cl)c(F)c1 | 93.8 (≈ 27.2 µg/mL)

molecular target: T4, Amine oxidase [flavin-containing] A (Homo sapiens, UniProt P21397); experiment: biochemical; settings: not given
T4 sequence (P21397 whole entry): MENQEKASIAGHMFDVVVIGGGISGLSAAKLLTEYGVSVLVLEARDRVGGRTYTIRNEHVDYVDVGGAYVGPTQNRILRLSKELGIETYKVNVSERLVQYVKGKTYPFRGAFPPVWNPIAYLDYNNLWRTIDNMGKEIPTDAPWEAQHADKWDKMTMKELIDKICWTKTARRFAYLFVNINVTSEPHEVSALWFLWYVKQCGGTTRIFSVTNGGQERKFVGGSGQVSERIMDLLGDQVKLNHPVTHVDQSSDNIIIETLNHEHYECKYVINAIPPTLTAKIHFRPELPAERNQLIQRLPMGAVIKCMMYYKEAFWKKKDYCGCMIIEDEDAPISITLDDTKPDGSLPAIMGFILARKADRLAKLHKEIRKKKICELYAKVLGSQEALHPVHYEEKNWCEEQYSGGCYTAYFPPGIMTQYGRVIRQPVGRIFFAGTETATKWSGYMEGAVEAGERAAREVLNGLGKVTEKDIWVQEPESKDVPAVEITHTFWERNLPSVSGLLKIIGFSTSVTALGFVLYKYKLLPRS

Compound | IC50 [µM]
O=C(Nc1cc2cc[nH]c2cn1)c1ccc(Cl)c(Cl)c1 | > 10
O=C(Nc1ccc2[nH]ccc2n1)c1ccc(F)c(Cl)c1 | > 10
O=C(Nc1cc2cc[nH]c2cn1)c1ccc(F)c(Cl)c1 | > 10
O=C(Nc1cc2cc[nH]c2cn1)c1ccc(Cl)c(F)c1 | > 10
O=C(Nc1ccc2[nH]ccc2n1)c1ccc(Cl)c(F)c1 | > 10
